Results taken from US9440957B2, “Compounds and compositions for modulating EGFR Activity” (Novartis AG, priority 2012, dated 2016).
Read-outs that look alike come from different tables or passages of the source.

Assays:
EGFR(L858R/T790M) = target: T1, EGFR(L858R/T790M) (Homo sapiens, UniProt P00533, L858R/T790M); test: EGFR biochemical assay (HTRF), IC50 determinations
T1 construct: purchased from Carna (GST-a.a. 669-1210)
Procedure, shortened: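 HTRF kinase reaction with biotin-TK peptide at room temperature, quenched with EDTA at 60 min and detected with PT66K/SAXL after 1 h. Without preincubation, enzyme starts the reaction with compound, ATP and peptide present. With preincubation, compound, enzyme and peptide sit at room temperature for a set time before ATP is added.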

HaCaT (EGFR WT) = HaCaT (EGFR WT) (Homo sapiens, UniProt P00533); test: EGFR target modulation in HaCaT (EGFR-WT) cell line (phospho-EGFR Y1173 ELISA); assay type: cell-based; settings: value in parentheses
Method: EGFR Target Modulation in HaCaT (EGFR-WT) Cell Line Tissue Culture. […] The serial diluted compounds were transferred to the plate containing cells by using a 50 nl Pin Head device (Perkin Elmer) and the cells were placed back in the incubator for 3 hours. […] Phospho-EGFR ([…]) ELISA. Solid white high-binding ELISA plates (Greiner #781074) were coated with 5 ug/ml anti-EGFR capture antibody (R&D Systems #AF231) overnight in 50 mM carbonate/bicarbonate pH 9.5 buffer. […] Wash steps were carried out with a Bio-Tek ELx405 SelectTM using 4 cycles of 100 ul TBS-T (20 mM Tris, 137 mM NaCl, 0.05% Tween-20) per well. […] Lysis was allowed to occur for 20 minutes on ice. A 25 ul aliquot was added to each well of the blocked ELISA plate and incubated overnight at 4° C. with gentle shaking. […] After washing, 1:2,000 anti-rabbit-HRP (Cell Signaling #7074) in 0.2% BSA/TBS-T was added and incubated for 1 hour at room temperature. Chemiluminescent detection was carried out with SuperSignal ELISA Pico substrate (ThermoScientific #37069). Signal was read on EnVision plate reader using built-in UltraLUM setting. Data Analysis. Control cells treated with EGF were set to 100% maximum response. […] With these parameters, the IC50's for each compound in each cell line was calculated using non-linear curve fitting analysis.

H1975 (EGFR L858/T790M) = H1975 (EGFR L858/T790M) (Homo sapiens, UniProt P00533, L858R/T790M); test: EGFR target modulation in H1975 cell line (phospho-EGFR Y1173 ELISA); assay type: cell-based
Procedure, shortened: (§1)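 pY1173 was measured by sandwich ELISA with anti-EGFR capture and chemiluminescent read-out. Before lysis, each cell line (HCC827, H1975, H3255) was treated with compound for 3 hours. IC50 derived by non-linear fit, normalised to EGF-stimulated controls as maximum.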

H3255 (EGFR L858R) = H3255 (EGFR L858R) (Homo sapiens, UniProt P00533, L858R); test: EGFR target modulation in H3255 cell line (phospho-EGFR Y1173 ELISA); assay type: cell-based
Procedure, shortened: as §1

[1] = target: human EGFR WT (NIH/3T3 cells, EGF-induced) (Homo sapiens, UniProt P00533); test: EGFR target modulation in engineered NIH/3T3 cell lines (phospho-EGFR Y1068 AlphaLISA), EGFR WT; assay type: cell-based; settings: engineered NIH/3T3 cells, read-out: NIH3T3 IC50 (μM) EGFR (WT)
Procedure, shortened: (§2)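 Read-out is phospho-Y1068 AlphaLISA on cell lysates, with anti-total EGFR at 1 nM final equilibrated 1 h at room temperature. Cells were dosed 3 h with a 12-point 1:3 series starting from a 10 μM stock. Only the WT line received 50 ng/ml EGF for 5 min.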

[2] = target: human EGFR L858R/T790M (NIH/3T3 cells) (Homo sapiens, UniProt P00533, L858R/T790M); test: EGFR target modulation in engineered NIH/3T3 cell lines (phospho-EGFR Y1068 AlphaLISA), EGFR L858R/T790M; assay type: cell-based; settings: engineered NIH/3T3 cells, read-out: NIH3T3 IC50 (μM) EGFR (L858R/T790M)
Procedure, shortened: as §2

HEKn (EGFR WT) = HEKn (EGFR WT) (Homo sapiens, UniProt P00533); test: EGFR target modulation in HEKn (EGFR-WT) cell line (phospho-EGFR Y1173 ELISA); assay type: cell-based; settings: value outside parentheses
Procedure, shortened: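 Primary neonatal human keratinocytes (EGFR WT) were exposed to serially diluted compounds for 3 h, then lysed on ice. Phospho-EGFR Y1173 was measured by chemiluminescent sandwich ELISA using anti-EGFR capture.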

[3] = target: human EGFR L858R (NIH/3T3 cells) (Homo sapiens, UniProt P00533, L858R); test: EGFR target modulation in engineered NIH/3T3 cell lines (phospho-EGFR Y1068 AlphaLISA), EGFR L858R; assay type: cell-based; settings: engineered NIH/3T3 cells, read-out: NIH3T3 IC50 (μM) EGFR (L858R)
Procedure, shortened: as §2

HCC827 (Del E746-A750) = HCC827 (Del E746-A750) (Homo sapiens, UniProt P00533, DEL746-750); test: EGFR target modulation in HCC827 cell line (phospho-EGFR Y1173 ELISA); assay type: cell-based
Method: EGFR Target Modulation in H1975, H3255 and HCC827 Cell Lines Tissue Culture. Cells were maintained in 10% FBS/RPMI supplemented with 100 μg/ml Penicillin/Streptomycin (Hyclone #SH30236.01). […] The cells were allowed to incubate overnight in a 37° C., 5% CO2 humidified tissue culture incubator. […] The serial diluted compounds were transferred to the plate containing cells by using a 50 nl Pin Head device (Perkin Elmer) and the cells were placed back in the incubator for 3 hours. Phospho-EGFR ([…]) Target Modulation Assay. The media was reduced to 20 ul using a Bio-Tek ELx 405 SelectTM plate washer. […] The plates were shaken at 4° C. for 20 minutes. An aliquot of 25 ul from each well was transferred to pEGFR(Y1173) ELISA plates for analysis. Phospho-EGFR ([…]) ELISA. Solid white high-binding ELISA plates (Greiner #781074) were coated with 5 ug/ml anti-EGFR capture antibody (R&D Systems #AF231) overnight in 50 mM carbonate/bicarbonate pH 9.5 buffer. Plates were blocked with 1% BSA (Sigma #A7030) in PBS for 1 hour at room temperature. Wash steps were carried out with a Bio-Tek ELx405 SelectTM using 4 cycles of 100 ul TBS-T (20 mM Tris, 137 mM NaCl, 0.05% Tween-20) per well. […] Lysis was allowed to occur for 20 minutes on ice. A 25 ul aliquot was added to each well of the blocked ELISA plate and incubated overnight at 4° C. with gentle shaking. […] After washing, 1:2,000 anti-rabbit-HRP (Cell Signaling #7074) in 0.2% BSA/TBS-T was added and incubated for 1 hour at room temperature. Chemiluminescent detection was carried out with SuperSignal ELISA Pico substrate (ThermoScientific #37069). Signal was read on EnVision plate reader using built-in UltraLUM setting. Data Analysis. Control cells treated with EGF were set to 100% maximum response. […] With these parameters, the IC50's for each compound in each cell line was calculated using non-linear curve fitting analysis.

[4] = EGFR (L858R/T790M) with 90 min pre-incubation, read-out: IC50 (μM) Column B
[5] = EGFR (L858R/T790M) with no pre-incubation, read-out: IC50 (μM) Column A

H1975 (EGFR L858/T790M), sequence (P00533 25-1210 T790M/L858R): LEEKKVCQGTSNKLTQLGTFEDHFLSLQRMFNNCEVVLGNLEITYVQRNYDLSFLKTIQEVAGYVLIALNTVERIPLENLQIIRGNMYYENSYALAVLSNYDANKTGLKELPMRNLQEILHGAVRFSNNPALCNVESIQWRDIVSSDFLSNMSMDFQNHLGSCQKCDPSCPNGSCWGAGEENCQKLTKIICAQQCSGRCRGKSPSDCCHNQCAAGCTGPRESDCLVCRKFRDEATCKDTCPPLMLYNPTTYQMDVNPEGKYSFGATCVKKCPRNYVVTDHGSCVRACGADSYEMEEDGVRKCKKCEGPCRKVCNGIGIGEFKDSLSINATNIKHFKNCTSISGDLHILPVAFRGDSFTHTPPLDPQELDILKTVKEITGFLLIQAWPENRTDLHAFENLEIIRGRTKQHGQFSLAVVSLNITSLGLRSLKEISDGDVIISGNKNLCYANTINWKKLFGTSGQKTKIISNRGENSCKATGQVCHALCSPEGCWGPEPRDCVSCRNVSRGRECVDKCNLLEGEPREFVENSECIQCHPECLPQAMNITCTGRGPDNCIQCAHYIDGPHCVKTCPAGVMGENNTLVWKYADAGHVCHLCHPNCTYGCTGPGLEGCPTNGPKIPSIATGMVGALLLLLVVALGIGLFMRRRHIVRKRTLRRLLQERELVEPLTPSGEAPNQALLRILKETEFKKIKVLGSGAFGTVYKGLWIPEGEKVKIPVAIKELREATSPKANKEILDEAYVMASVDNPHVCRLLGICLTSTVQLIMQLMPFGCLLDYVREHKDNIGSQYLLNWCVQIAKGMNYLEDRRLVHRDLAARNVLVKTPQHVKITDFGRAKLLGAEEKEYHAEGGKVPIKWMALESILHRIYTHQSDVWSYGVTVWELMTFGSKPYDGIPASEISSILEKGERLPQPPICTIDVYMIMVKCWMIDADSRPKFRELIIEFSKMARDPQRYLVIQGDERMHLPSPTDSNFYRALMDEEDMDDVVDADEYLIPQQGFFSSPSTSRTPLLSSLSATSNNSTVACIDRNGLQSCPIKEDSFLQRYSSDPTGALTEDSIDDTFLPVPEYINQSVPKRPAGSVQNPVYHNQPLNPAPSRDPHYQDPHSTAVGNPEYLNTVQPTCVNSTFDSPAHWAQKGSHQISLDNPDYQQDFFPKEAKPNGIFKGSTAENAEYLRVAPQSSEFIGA
human EGFR L858R/T790M (NIH/3T3 cells), sequence (P00533 25-1210 T790M/L858R): as above
HCC827 (Del E746-A750), sequence (P00533 with tags, fused parts or gaps DEL746-750): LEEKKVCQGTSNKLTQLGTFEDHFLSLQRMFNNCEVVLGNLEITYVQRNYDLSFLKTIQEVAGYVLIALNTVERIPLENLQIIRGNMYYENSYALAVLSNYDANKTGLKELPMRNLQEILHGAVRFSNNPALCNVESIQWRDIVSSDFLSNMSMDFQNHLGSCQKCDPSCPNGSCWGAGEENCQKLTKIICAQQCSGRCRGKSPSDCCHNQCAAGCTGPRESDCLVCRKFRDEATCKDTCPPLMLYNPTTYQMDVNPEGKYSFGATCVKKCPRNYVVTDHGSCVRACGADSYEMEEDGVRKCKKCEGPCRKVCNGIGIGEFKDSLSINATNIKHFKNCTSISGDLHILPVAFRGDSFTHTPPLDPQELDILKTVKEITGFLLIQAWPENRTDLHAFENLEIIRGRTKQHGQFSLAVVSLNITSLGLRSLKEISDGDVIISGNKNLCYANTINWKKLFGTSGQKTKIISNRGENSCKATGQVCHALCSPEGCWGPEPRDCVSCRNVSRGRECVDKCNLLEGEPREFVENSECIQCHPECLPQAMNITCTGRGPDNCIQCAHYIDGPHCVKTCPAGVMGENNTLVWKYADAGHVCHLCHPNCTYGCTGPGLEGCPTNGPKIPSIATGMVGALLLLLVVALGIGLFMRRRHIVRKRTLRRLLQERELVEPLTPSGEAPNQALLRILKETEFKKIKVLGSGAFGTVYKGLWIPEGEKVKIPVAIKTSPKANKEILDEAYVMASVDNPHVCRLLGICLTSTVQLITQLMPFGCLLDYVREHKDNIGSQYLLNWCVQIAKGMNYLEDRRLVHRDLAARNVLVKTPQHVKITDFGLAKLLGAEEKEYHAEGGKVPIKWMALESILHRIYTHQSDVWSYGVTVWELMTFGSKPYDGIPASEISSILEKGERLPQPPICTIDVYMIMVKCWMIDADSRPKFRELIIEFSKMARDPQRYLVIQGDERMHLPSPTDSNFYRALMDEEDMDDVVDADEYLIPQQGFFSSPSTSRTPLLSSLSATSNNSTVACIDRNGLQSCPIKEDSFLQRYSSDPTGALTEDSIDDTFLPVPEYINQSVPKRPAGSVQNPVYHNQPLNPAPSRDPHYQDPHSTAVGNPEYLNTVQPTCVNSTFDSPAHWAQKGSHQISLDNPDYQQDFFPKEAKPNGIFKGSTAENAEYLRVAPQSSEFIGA
human EGFR WT (NIH/3T3 cells, EGF-induced), sequence (P00533 25-1210): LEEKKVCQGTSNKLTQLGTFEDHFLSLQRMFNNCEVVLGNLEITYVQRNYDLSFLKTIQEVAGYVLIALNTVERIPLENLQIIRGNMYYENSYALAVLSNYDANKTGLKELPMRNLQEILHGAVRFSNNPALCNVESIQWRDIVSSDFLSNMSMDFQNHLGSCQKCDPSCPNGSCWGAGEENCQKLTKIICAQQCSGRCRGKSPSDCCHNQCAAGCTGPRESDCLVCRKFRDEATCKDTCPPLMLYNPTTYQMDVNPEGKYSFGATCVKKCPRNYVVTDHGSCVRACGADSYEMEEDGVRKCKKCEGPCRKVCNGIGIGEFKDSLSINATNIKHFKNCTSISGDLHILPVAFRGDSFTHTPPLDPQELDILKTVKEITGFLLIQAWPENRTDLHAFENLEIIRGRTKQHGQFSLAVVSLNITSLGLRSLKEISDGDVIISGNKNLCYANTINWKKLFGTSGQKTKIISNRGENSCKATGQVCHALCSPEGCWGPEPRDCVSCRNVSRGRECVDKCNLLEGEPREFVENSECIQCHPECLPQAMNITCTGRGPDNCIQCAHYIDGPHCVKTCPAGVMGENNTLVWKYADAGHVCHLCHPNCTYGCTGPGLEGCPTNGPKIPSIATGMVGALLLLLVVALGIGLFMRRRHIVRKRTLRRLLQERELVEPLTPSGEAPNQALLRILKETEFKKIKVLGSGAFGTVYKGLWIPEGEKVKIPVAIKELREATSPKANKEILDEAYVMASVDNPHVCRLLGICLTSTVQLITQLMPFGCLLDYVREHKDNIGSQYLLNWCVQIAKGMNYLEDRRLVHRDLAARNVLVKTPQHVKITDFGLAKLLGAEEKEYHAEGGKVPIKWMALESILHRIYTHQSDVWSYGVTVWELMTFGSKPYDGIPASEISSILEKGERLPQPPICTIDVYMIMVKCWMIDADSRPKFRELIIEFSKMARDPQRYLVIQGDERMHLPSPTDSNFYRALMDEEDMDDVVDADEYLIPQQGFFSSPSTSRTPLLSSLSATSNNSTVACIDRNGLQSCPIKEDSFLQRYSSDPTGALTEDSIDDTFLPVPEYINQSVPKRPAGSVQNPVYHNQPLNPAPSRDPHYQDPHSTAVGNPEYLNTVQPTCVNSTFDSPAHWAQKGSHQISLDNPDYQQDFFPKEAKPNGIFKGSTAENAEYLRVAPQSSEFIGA

SMILES	IC50 (EGFR(L858R/T790M); [4])	IC50 (EGFR(L858R/T790M); [5])	IC50 (HaCaT (EGFR WT))	IC50 (H1975 (EGFR L858/T790M))	IC50 (H3255 (EGFR L858R))	IC50 [1]	IC50 [2]	IC50 (HEKn (EGFR WT))	IC50 [3]	IC50 (HCC827 (Del E746-A750))
Cc1cc(C(=O)Nc2nc3cccc(Cl)c3n2C2CCCCN(C(=O)/C=C/CN(C)C)C2)cc(P(C)(C)=O)n1 (single isomer, unassigned) [Example 21-9A]	3.7 µM	32.4 µM	> 10000 nM	> 10000 nM	6580 nM	–	–	–	–	–
C=CC(=O)N1CCCC[C@@H](n2c(NC(=O)c3cccc(C(F)(F)F)c3)nc3cccc(C(F)(F)F)c32)C1 [Example 17-12]	0.003 µM	0.064 µM	–	10 nM	147 nM	4.4 µM	0.008 µM	> 10000 nM	0.052 µM	30 nM
Cc1cccc2nc(NC(=O)c3ccnc(OC(F)F)c3)n([C@@H]3CCCCN(C(=O)/C=C/CN(C)C)C3)c12 [Example 17-103]	< 0.001 µM	< 0.001 µM	–	1 nM	2 nM	0.019 µM	< 0.001 µM	98 nM	< 0.001 µM	< 1 nM
C=CC(=O)N1CCC[C@@H](n2c(NC(=O)c3cccc(C(F)(F)F)c3)nc3cccc(C)c32)C1 [Example 17-106]	0.002 µM	0.038 µM	–	9 nM	83 nM	> 10 µM	0.007 µM	> 10000 nM	0.124 µM	153 nM
C=CC(=O)N1CCC[C@@H](n2c(NC(=O)c3cccc(C(F)(F)F)c3)nc3cc(CN4CCOCC4)ccc32)C1 [Example 17-112]	0.003 µM	0.04 µM	–	15 nM	155 nM	> 10 µM	0.006 µM	> 10000 nM	0.04 µM	135 nM
C=CC(=O)N1CCCC[C@@H](n2c(NC(=O)c3cc(C)nc(C)c3)nc3cc(CN4CCCC4)cc(C)c32)C1 [Example 17-113]	< 0.001 µM	0.003 µM	–	2 nM	4 nM	0.081 µM	0.001 µM	265 nM	0.001 µM	< 1 nM
C=CC(=O)N1CCC[C@@H](n2c(NC(=O)c3cccc(C(F)(F)F)c3)nc3cc(CN4CCCC4)ccc32)C1 [Example 17-117]	0.004 µM	0.036 µM	–	13 nM	290 nM	6.4 µM	0.006 µM	> 10000 nM	0.05 µM	243 nM
C=CC(=O)N1CCC[C@@H](n2c(NC(=O)c3cccc(C(F)(F)F)c3)nc3cc(CN(C)C(C)=O)ccc32)C1 [Example 17-119]	0.008 µM	0.062 µM	–	10 nM	118 nM	5 µM	0.008 µM	> 6900 nM	0.051 µM	71 nM
C=CC(=O)N1CCC[C@@H](n2c(NC(=O)c3cccc(C(F)(F)F)c3)nc3cc(COC)ccc32)C1 [Example 17-122]	< 0.001 µM	0.062 µM	–	16 nM	390 nM	> 10 µM	0.02 µM	> 10000 nM	0.176 µM	90 nM
C=CC(=O)N1CCC[C@@H](n2c(NC(=O)c3cccc(C(F)(F)F)c3)nc3cc(COCC)ccc32)C1 [Example 17-123]	0.004 µM	0.115 µM	–	22 nM	199 nM	> 10 µM	0.017 µM	> 10000 nM	0.174 µM	291 nM
C=CC(=O)N1CCCC[C@@H](n2c(NC(=O)c3ccnc(C)c3)nc3cc(CN4CCCC4)cc(C)c32)C1 [Example 17-126]	< 0.001 µM	0.001 µM	–	< 1 nM	2 nM	0.024 µM	< 0.001 µM	65 nM	< 0.001 µM	< 1 nM
C=CC(=O)N1CCCC[C@@H](n2c(NC(=O)c3ccnc(C)c3)nc3cc(CN4CCCCC4)cc(C)c32)C1 [Example 17-144]	< 0.001 µM	0.002 µM	–	< 1 nM	1 nM	0.029 µM	< 0.001 µM	72 nM	< 0.001 µM	< 1 nM
C=CC(=O)N1CCCC[C@@H](n2c(NC(=O)c3ccnc(C)c3)nc3cc(CN4CCC4)cc(C)c32)C1 [Example 17-145]	< 0.001 µM	0.001 µM	–	1 nM	2 nM	0.026 µM	0.001 µM	95 nM	< 0.001 µM	< 1 nM
C=CC(=O)N1CCCC[C@@H](n2c(NC(=O)c3ccnc(C)c3)nc3cc(CN4CCC(F)(F)C4)cc(C)c32)C1 [Example 17-151]	< 0.001 µM	0.001 µM	–	< 1 nM	1 nM	0.014 µM	0.001 µM	36 nM	< 0.001 µM	< 1 nM
C=CC(=O)N1CCCC[C@@H](n2c(NC(=O)c3ccnc(C)c3)nc3cc(CN4CC(F)(F)C4)cc(C)c32)C1 [Example 17-153]	< 0.001 µM	0.002 µM	–	< 1 nM	2 nM	0.037 µM	0.001 µM	61 nM	0.001 µM	< 1 nM
C=CC(=O)N1CCCC[C@@H](n2c(NC(=O)c3ccnc(C)c3)nc3cc(CN4CCS(=O)(=O)CC4)cc(C)c32)C1 [Example 17-155]	< 0.001 µM	0.002 µM	–	2 nM	2 nM	0.065 µM	0.002 µM	61 nM	0.002 µM	< 1 nM
